Assay results taken from US9737493B2, “Compositions and methods for modulating DNMT1 inhibitor activity” (University of Louisville Research Foundation, Inc., priority 2012, dated 2017).

System: U937 cells
Assay: GSH-Glo reduced glutathione content assay
Type: cell-based, human
Details: U937, 1 μM XB05, 24 h
Experimental: FIG. 8: XB05 Modulates Cellular Stress Responses. (A) A luminescence-based assay for reduced glutathione (GSH) content in cells treated 24 h with XB05 (1 μM for U937 and Hs27, or 2 μM for A549), in the absence or presence of 5 mM GSH. Some cells were treated with buthionine sulfoximine (BSO, 200 μM) plus diethyl maleate (DEM, 1 mM) for 3 h as a positive control for GSH depletion. Bar graph indicates mean+/−SEM from three independent experiments. […] (C) Western blot for Nrf2 in nuclear extracts from cells treated as in part A for either 8 h or 24 h. Membranes were stripped and reprobed for Ku-70 as a loading control. (D) Western blot for phospho-eIF2α (Ser51), total eIF2-α, BiP/Grp78, and GAPDH (loading control) in whole cell extracts from cell lines treated as indicated for 24 h with concentrations of XB05 described in part A. Thapsigargin (TG, 2 μM) was used as a positive control for induction of endoplasmic reticulum (ER) stress.
Reduced Glutathione Content Analyses. After treatment as indicated in the figures and in the Brief Description of the Drawings, cells were harvested as described, counted and dispensed at a density of 10,000 cells/well in triplicate on a 96-well white, opaque bioluminescence plate (Corning). Cellular content of reduced glutathione (GSH) was analyzed using the GSH-Glo® Glutathione Assay Kit (Promega) according to the manufacturer's instructions. The chemiluminescent signal was quantified on a Biotek Synergy HT plate-reader (Biotek, Winooski, Vt.) using an integration time of 1 s/well.

## CCCCCC(O)C#CC(F)(F)Br (stereo not shown) [XB05]
  change in reduced GSH: depletion of reduced GSH
